Laboratory results taken from patent US8076352B2, “Administration of carboline derivatives useful in the treatment of cancer and other diseases” (PTC Therapeutics, Inc., priority 2004, dated 2011).

Tested on: hypoxia-inducible endogenous VEGF expression in HeLa cells
Assay: Hypoxia-inducible endogenous VEGF expression, VEGF ELISA of conditioned media (dose-response EC50)
Assay type: cell-based
Description: The ability of the compounds of the invention to modulate hypoxia-inducible endogenous VEGF expression may be analyzed as follows. VEGF protein levels may be monitored by an ELISA assay (R&D Systems). Briefly, HeLa cells may be cultured for 24-48 hours under hypoxic conditions (1% O2, 5% CO2, balanced with nitrogen) in the presence or absence of a compound of the invention. The conditioned media may then be assayed by ELISA, and the concentration of VEGF calculated from the standard ELISA curve of each assay.
A dose-response analysis may be performed using the ELISA assay and conditions described above. The conditions for the dose-response ELISA are analogous to those described above. A series of, e.g., seven different concentrations may be analyzed. […] Dose-response curves may be plotted using percentage inhibition versus concentration of the compound, and EC50 and CC50 values may be generated for each compound with the maximal inhibition set as 100% and the minimal inhibition as 0%.

[1] = Homo sapiens, HeLa cells under hypoxic conditions
[2] = Homo sapiens, HeLa cells, hypoxic conditions (1% O2, 5% CO2)
[3] = Homo sapiens, HeLa cells, hypoxic conditions (1% O2)
[4] = HeLa cells, hypoxic conditions (1% O2)

Row | EC50 [1] [nM] | Structure (SMILES) | also measured
1 | 40 to 200 | S=C(NC1CCCCC1)N1CCc2c([nH]c3ccc(Br)cc23)C1c1cccc(Cl)c1 (stereo not drawn) [Compound 150] | –
2 | – | CN1CCCC(COc2ccc(C3c4[nH]c5ccc(Cl)cc5c4CCN3C(=O)Oc3ccccc3)cc2)C1 (stereo not drawn) [Compound 952] | EC50 [2]: 8 to 40 nM
3 | > 1000 | COc1ccc(C2NC(C(=O)N3CCOCC3)Cc3c2[nH]c2ccc(Br)cc32)cc1 (stereo not drawn) [Compound 247] | –
4 | – | CCOC(=O)N1CCc2c([nH]c3ccc(Cl)cc23)C1c1cccc(C(=O)NCCN2CCOCC2)c1 (stereo not drawn) [Compound 552] | EC50 [3]: 200 to 1000 nM
5 | > 1000 | COc1ccc(C2c3[nH]c4ccccc4c3CCN2C(=S)Nc2cccc(F)c2)cc1 (stereo not drawn) [Compound 308] | –
6 | – | CCOC(=O)N1CCc2c([nH]c3ccc(Br)cc23)C1c1cnc(N(C)C)nc1 (stereo not drawn) [Compound 435] | EC50 [3]: < 8 nM
7 | – | O=C(Oc1ccc(Cl)cc1)N1CCc2c([nH]c3ccc(Cl)cc23)C1c1ccc(OCC(O)CN2CCOCC2)cc1 (stereo not drawn) [Compound 904] | EC50 [2]: < 8 nM
8 | > 1000 | COCCOCC(=O)N1CCc2c([nH]c3ccc(Br)cc23)C1c1cccc(Cl)c1 (stereo not drawn) [Compound 259] | –
9 | 200 to 1000 | Clc1cccc(C2NCCc3c2[nH]c2ccc(Cl)cc32)c1 (stereo not drawn) [Compound 198] | –
10 | < 8 | CCOC(=O)N1CCc2c([nH]c3ccc(Cl)cc23)C1c1ccc(C(C)C)cc1 (stereo not drawn) [Compound 14] | –
11 | > 1000 | Cc1cccc(C2NCCc3c2[nH]c2ccc(Cl)cc32)c1 (stereo not drawn) [Compound 286] | –
12 | < 8 | COC(=O)c1ccc(C2c3[nH]c4ccc(Cl)cc4c3CCN2C(=O)Oc2ccc(F)cc2)cc1 (stereo not drawn) [Compound 395] | –
13 | – | O=C(Oc1ccc(Cl)cc1)N1CCc2c([nH]c3ccc(Cl)cc23)C1c1ccc(OCC(O)Cn2ccnn2)cc1 (stereo not drawn) [Compound 973] | EC50 [2]: 8 to 40 nM
14 | – | CCOC(=O)N1CCc2c([nH]c3ccc(Cl)cc23)C1c1cccc(C(=O)N2CCN(C)CC2)c1 (stereo not drawn) [Compound 529] | EC50 [3]: 200 to 1000 nM
15 | – | CC(=O)N1CCN(CCCOc2ccc(C3c4[nH]c5ccc(Cl)cc5c4CCN3C(=O)Oc3ccc(F)cc3)cc2)CC1 (stereo not drawn) [Compound 988] | EC50 [2]: < 8 nM
16 | < 8 | C=CCOc1ccc(C2c3[nH]c4ccc(Cl)cc4c3CCN2C(=O)OCC)cc1 (stereo not drawn) [Compound 396] | –
17 | – | CN(C)CCCOc1ccc(C2c3[nH]c4ccc(Cl)cc4c3CCN2C(=O)OCCF)cc1 (stereo not drawn) [Compound 456] | EC50 [3]: 8 to 40 nM
18 | – | COCCN(CCOC)CC(O)COc1ccc(C2c3[nH]c4ccc(Cl)cc4c3CCN2C(=O)Oc2ccc(F)cc2)cc1 (stereo not drawn) [Compound 913] | EC50 [2]: < 8 nM
19 | 200 to 1000 | Brc1ccc2[nH]c3c(c2c1)CCNC3c1ccccc1 (stereo not drawn) [Compound 174] | –

Row | EC50 [1] [nM] | Structure (SMILES) | also measured
20 | 40 to 200 | COC(=O)N1CCc2c([nH]c3ccc(Cl)cc23)C1c1ccc2c(c1)OCO2 (stereo not drawn) [Compound 133] | –
21 | – | O=C(Oc1ccc(Cl)cc1)N1CCc2c([nH]c3ccc(Cl)cc23)C1c1ccc(OCCCCCCN2CCCC2)cc1 (stereo not drawn) [Compound 783] | EC50 [3]: < 8 nM
22 | 40 to 200 | Fc1ccc(C2NCCc3c2[nH]c2ccc(Br)cc32)c(F)c1 (stereo not drawn) [Compound 161] | –
23 | 8 to 40 | CCOC(=O)N1CCc2c([nH]c3ccc(Cl)cc23)C1c1ccc(Br)cc1 (stereo not drawn) [Compound 54] | –
24 | – | CCOC(=O)N1CCc2c([nH]c3ccc(Cl)cc23)C1c1ccc(C(=O)N2CCOCC2)cc1 (stereo not drawn) [Compound 492] | EC50 [3]: 40 to 200 nM
25 | > 1000 | Cc1ccc(C2NCCc3c2[nH]c2ccc(F)cc32)cc1 (stereo not drawn) [Compound 255] | –
26 | – | COC(=O)c1ccc(C2c3[nH]c4ccc(Br)cc4c3CCN2C(=O)Oc2ccc(Cl)cc2)cc1 (stereo not drawn) [Compound 591] | EC50 [3]: < 8 nM
27 | 8 to 40 | CS(=O)(=O)c1ccc(C2c3[nH]c4ccc(Cl)cc4c3CCN2C(=O)Oc2ccc(Cl)cc2)cc1 (stereo not drawn) [Compound 360] | –
28 | 8 to 40 | CCOC(=O)N1CCc2c([nH]c3ccc(Cl)cc23)C1c1ccccc1F (stereo not drawn) [Compound 106] | –
29 | – | O=C(Oc1ccc(Cl)cc1)N1CCc2c([nH]c3ccc(Cl)cc23)C1c1ccc(OCCCI)cc1 (stereo not drawn) [Compound 617] | EC50 [3]: 8 to 40 nM
30 | < 8 | O=C(OCCCl)N1CCc2c([nH]c3ccc(Cl)cc23)C1c1cc(F)ccc1F (stereo not drawn) [Compound 22] | –
31 | – | CC(C)NCC(O)COc1ccc(C2c3[nH]c4ccc(Cl)cc4c3CCN2C(=O)Oc2ccc(Cl)cc2)cc1 (stereo not drawn) [Compound 977] | EC50 [2]: 40 to 200 nM
32 | – | O=C(Oc1ccc(Cl)cc1)N1CCc2c([nH]c3ccc(Cl)cc23)C1c1ccc(OCC(O)CN2CCCC2)cc1 (stereo not drawn) [Compound 462] | EC50 [3]: 8 to 40 nM
33 | 200 to 1000 | CCOC(=O)N1CCc2c([nH]c3ccc(Cl)cc23)C1c1ccccc1Cl (stereo not drawn) [Compound 183] | –
34 | – | CC(C)OC(=O)N1CCc2c([nH]c3ccc(Cl)cc23)C1c1ccc(OCCCN(C)C)cc1 (stereo not drawn) [Compound 459] | EC50 [3]: 8 to 40 nM
35 | < 8 | CCOC(=O)N1CCc2c([nH]c3ccc(Cl)cc23)C1c1ccc(Cl)cc1 (stereo not drawn) [Compound 11] | –
36 | – | O=C(O)c1ccc(C2c3[nH]c4ccc(Cl)cc4c3CCN2C(=O)Oc2ccc(F)cc2)cc1 (stereo not drawn) [Compound 581] | EC50 [3]: > 1000 nM
37 | 8 to 40 | CCCOC(=O)N1CCc2c([nH]c3ccc(Cl)cc23)C1c1cccc(C(F)(F)F)c1 (stereo not drawn) [Compound 79] | –
38 | – | CCOC(=O)N1CCc2c([nH]c3ccc(Cl)cc23)C1c1ccc(C(=O)NCC2CCCO2)cc1 (stereo not drawn) [Compound 494] | EC50 [3]: 40 to 200 nM

Row | EC50 [1] [nM] | Structure (SMILES) | also measured
39 | > 1000 | COc1ccc(C2c3[nH]c4ccccc4c3CCN2C(=S)NC2CCCCC2)cc1 (stereo not drawn) [Compound 312] | –
40 | 8 to 40 | CC(=O)N1CCc2c([nH]c3ccc(Br)cc23)C1c1ccc(C(C)C)cc1 (stereo not drawn) [Compound 102] | –
41 | < 8 | CCCOC(=O)N1CCc2c([nH]c3ccc(Cl)cc23)C1c1ccc(OCCOC)cc1 (stereo not drawn) [Compound 392] | –
42 | – | O=C(Oc1ccc(Cl)cc1)N1CCc2c([nH]c3ccc(Cl)cc23)C1c1ccc(OCCCCN2CCOCC2)cc1 (stereo not drawn) [Compound 702] | EC50 [3]: 8 to 40 nM
43 | – | COC(=O)c1ccc(C2c3[nH]c4ccc(Cl)cc4c3CCN2C(=O)Oc2ccc(F)cc2)cc1 (stereo not drawn) [Compound 579] | EC50 [4]: < 8 nM
44 | > 1000 | Clc1ccc2[nH]c3c(c2c1)CCN(Cc1ccoc1)C3c1nccs1 (stereo not drawn) [Compound 270] | –
45 | 8 to 40 | O=C(OCCCl)N1CCc2c([nH]c3ccc(Cl)cc23)C1c1cccc(Br)c1 (stereo not drawn) [Compound 99] | –
46 | 40 to 200 | CC(C)NC(=S)N1CCc2c([nH]c3ccc(Br)cc23)C1c1ccccc1 (stereo not drawn) [Compound 158] | –
47 | > 1000 | Clc1ccc2[nH]c3c(c2c1)CCNC3c1ccc(-n2ccnc2)cc1 (stereo not drawn) [Compound 277] | –
48 | 8 to 40 | CC(C)COC(=O)N1CCc2c([nH]c3ccc(Br)cc23)C1c1ccccc1 (stereo not drawn) [Compound 67] | –
49 | – | O=C(Oc1ccc(Cl)cc1)N1CCc2c([nH]c3ccc(Cl)cc23)C1c1ccc(OCC(O)Cn2cncn2)cc1 (stereo not drawn) [Compound 996] | EC50 [2]: < 8 nM
50 | 8 to 40 | CCOC(=O)N1CCc2c([nH]c3ccc(Br)cc23)C1c1cc(F)cc(F)c1 (stereo not drawn) [Compound 64] | –
51 | – | COc1ccc(C2c3[nH]c4ccc(Cl)cc4c3CCN2C(=O)Oc2ccc(F)cc2)cc1 (stereo not drawn) [Compound 410] | EC50 [4]: < 8 nM
52 | < 8 | CC(C)(C)OC(=O)N1CCc2c([nH]c3ccc(Cl)cc23)C1c1ccc2c(c1)OCO2 (stereo not drawn) [Compound 362] | –
53 | – | O=C1OCC(COc2ccc(C3c4[nH]c5ccc(Cl)cc5c4CCN3C(=O)Oc3ccc(Cl)cc3)cc2)O1 (stereo not drawn) [Compound 421] | EC50 [3]: < 8 nM
54 | 8 to 40 | COc1ccc(C2c3[nH]c4ccc(Cl)cc4c3CCN2C(=O)Oc2ccccc2)cc1 (stereo not drawn) [Compound 60] | –
55 | – | CCOC(=O)Nc1ccc(C2c3[nH]c4ccc(Cl)cc4c3CCN2C(=O)Oc2ccc(Cl)cc2)cc1 (stereo not drawn) [Compound 467] | EC50 [3]: 8 to 40 nM
56 | – | COCCOCCOc1ccc(C2c3[nH]c4ccc(Cl)cc4c3CCN2C(=O)Oc2ccccc2Cl)cc1 (stereo not drawn) [Compound 674] | EC50 [3]: 8 to 40 nM
57 | – | O=C(Oc1ccc(Cl)cc1)N1CCc2c([nH]c3ccc(Cl)cc23)C1c1ccc(OCC(O)CO)cc1 (stereo not drawn) [Compound 629] | EC50 [3]: < 8 nM
